Measured values reported in ChEMBL document CHEMBL4118154, “Discovery of evocalcet, a next-generation calcium-sensing receptor agonist for the treatment of hyperparathyroidism” (Bioorg Med Chem Lett, 2018).

How the values were obtained:
CYP2C9 = CYP2C9 (Homo sapiens, UniProt P11712); test: Inhibition of CYP2C9 (unknown origin); format: ADME
CYP2E1 = CYP2E1 (Homo sapiens, UniProt P05181); test: Inhibition of CYP2E1 (unknown origin); format: ADME
CYP2C8 = target: T1, CYP2C8 (Homo sapiens, UniProt P10632); test: Inhibition of CYP2C8 (unknown origin); format: ADME
T1 sequence (P10632 whole entry): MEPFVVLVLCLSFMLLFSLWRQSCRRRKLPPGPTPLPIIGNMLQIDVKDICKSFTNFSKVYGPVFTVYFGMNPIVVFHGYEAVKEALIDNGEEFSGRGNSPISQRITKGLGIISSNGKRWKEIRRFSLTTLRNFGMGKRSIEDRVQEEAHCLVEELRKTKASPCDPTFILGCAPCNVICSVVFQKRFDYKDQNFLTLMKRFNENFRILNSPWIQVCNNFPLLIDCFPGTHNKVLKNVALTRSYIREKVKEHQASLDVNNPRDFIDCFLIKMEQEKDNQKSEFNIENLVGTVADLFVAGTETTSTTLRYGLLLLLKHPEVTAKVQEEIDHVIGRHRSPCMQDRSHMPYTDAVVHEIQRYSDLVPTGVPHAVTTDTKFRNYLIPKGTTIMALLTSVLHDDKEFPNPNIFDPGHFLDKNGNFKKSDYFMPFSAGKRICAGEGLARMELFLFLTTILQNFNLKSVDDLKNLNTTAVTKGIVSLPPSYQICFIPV

[1] = AUC (0 to infinity) in rat at 0.3 mg/kg, iv; format: ADME, organism-based; design: dose 0.3 mg/kg, route intravenous, time infinity; details: in vivo
CYP1A2 = target: T2, CYP1A2 (Homo sapiens, UniProt P05177); test: Inhibition of CYP1A2 (unknown origin); format: ADME
T2 sequence (P05177 whole entry): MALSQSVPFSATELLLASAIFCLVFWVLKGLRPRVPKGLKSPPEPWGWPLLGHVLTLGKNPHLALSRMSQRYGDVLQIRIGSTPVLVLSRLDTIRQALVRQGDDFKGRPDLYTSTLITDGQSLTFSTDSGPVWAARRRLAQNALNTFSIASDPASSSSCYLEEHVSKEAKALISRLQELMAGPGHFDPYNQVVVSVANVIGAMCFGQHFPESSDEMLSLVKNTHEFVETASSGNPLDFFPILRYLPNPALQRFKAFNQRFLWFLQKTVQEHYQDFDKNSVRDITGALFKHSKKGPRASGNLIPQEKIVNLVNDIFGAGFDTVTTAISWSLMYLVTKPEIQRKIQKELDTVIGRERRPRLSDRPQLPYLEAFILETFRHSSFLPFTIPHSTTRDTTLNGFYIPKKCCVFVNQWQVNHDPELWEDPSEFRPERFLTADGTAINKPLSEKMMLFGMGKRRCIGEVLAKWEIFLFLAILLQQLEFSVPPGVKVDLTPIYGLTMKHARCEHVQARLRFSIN

[2] = target: T3, Extracellular calcium-sensing receptor (Rattus norvegicus, UniProt P48442); test: Agonist activity at CaSR in rat parathyroid cells assessed as inhibition of PTH (1 to 84 residues) production in presence of Cacl2 by ELISA; format: functional, cell-based
T3 sequence (P48442 whole entry): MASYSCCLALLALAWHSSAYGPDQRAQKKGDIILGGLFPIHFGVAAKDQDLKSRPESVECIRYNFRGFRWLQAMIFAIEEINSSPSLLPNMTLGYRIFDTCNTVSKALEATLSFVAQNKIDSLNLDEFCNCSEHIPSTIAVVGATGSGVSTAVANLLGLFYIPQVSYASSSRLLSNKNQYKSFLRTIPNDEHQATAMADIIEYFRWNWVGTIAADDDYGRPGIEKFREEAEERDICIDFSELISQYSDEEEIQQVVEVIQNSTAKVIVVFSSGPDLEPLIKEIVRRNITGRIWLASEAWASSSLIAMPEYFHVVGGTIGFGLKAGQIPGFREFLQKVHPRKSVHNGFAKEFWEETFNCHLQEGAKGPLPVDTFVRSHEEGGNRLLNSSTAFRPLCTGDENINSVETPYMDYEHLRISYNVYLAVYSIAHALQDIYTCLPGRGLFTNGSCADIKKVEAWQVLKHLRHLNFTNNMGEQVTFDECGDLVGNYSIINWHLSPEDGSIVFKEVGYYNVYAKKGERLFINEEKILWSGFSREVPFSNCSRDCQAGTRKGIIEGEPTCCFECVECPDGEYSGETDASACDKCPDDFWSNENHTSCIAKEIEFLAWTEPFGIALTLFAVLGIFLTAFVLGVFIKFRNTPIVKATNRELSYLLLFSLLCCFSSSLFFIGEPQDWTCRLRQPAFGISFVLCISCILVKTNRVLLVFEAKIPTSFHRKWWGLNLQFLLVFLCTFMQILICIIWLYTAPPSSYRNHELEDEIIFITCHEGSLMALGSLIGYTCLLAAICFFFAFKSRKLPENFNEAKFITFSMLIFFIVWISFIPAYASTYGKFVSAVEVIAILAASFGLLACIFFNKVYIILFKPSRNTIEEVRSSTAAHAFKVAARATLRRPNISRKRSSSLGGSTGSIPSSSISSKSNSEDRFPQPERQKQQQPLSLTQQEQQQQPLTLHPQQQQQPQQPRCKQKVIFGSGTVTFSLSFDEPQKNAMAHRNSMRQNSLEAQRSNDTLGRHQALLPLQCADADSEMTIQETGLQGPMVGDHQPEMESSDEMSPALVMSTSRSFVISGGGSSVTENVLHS

[3] = Oral bioavailability in monkey at 1 mg/kg; format: ADME, organism-based, Macaca mulatta; details: rhesus monkey, in vivo
[4] = Intrinsic clearance in human liver microsomes assessed per protein; format: ADME, microsome; details: read-out: CLH
[5] = Half life in monkey at 1 mg/kg, po; format: ADME, organism-based, Macaca mulatta; details: rhesus monkey, in vivo
[6] = Total clearance in rat at 0.3 mg/kg, iv; format: ADME, organism-based; details: in vivo
[7] = AUC (0 to infinity) in monkey at 1 mg/kg, po; format: ADME, organism-based, Macaca mulatta; design: dose 1 mg/kg, time infinity, route oral; details: rhesus monkey, in vivo
[8] = Intrinsic clearance in rat liver microsomes assessed per protein; format: ADME, microsome; details: read-out: CLH
[9] = Initial plasma concentration in monkey at 0.3 mg/kg, iv; format: ADME, organism-based, Macaca mulatta; details: rhesus monkey
CYP3A4/5 = CYP3A4/5 (Homo sapiens, UniProt P08684+P20815); test: Inhibition of CYP3A4/5 (unknown origin); format: ADME, protein assay
[10] = Total clearance in monkey at 0.3 mg/kg, iv; format: ADME, organism-based, Macaca mulatta; details: rhesus monkey, in vivo
[11] = Cmax in rat at 1 mg/kg, po; format: ADME, organism-based; design: dose 1 mg/kg, route oral; details: in vivo
[12] = Cmax in monkey at 1 mg/kg, po; format: ADME, organism-based, Macaca mulatta; design: dose 1 mg/kg, route oral; details: rhesus monkey, in vivo

Sequence of CYP2E1 (P05181 whole entry): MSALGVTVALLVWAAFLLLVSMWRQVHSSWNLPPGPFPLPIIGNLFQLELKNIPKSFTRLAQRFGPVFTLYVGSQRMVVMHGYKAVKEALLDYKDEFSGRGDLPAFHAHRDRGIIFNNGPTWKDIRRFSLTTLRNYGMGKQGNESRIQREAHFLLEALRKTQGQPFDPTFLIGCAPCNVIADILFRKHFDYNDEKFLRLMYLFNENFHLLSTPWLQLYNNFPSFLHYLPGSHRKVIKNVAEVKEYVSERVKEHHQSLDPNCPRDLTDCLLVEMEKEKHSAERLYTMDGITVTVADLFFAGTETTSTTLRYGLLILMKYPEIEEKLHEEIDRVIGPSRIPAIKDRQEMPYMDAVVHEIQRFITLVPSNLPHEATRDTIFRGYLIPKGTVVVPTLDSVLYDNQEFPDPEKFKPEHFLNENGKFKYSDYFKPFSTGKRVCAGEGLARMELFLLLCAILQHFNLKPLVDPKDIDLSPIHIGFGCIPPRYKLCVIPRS
Sequence of CYP2C9 (P11712 whole entry): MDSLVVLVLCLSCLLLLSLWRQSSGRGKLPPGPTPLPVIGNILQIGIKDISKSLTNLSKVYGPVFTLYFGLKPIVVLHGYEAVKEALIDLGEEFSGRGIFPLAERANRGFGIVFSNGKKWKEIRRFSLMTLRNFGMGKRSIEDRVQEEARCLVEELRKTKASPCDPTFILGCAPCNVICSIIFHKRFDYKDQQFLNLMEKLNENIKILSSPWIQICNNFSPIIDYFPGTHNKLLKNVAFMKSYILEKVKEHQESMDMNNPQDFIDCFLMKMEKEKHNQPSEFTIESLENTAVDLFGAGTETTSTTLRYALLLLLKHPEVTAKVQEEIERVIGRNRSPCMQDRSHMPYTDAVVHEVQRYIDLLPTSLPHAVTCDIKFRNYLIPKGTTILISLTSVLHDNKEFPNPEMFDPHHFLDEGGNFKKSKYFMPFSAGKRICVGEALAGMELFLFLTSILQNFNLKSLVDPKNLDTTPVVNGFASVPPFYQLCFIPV

IC50 (CYP2C9): > 50 µM
IC50 (CYP2E1): > 50 µM
IC50 (CYP2C8): > 50 µM
AUC(0-inf) [1]: 3010 ng·h/mL
IC50 (CYP1A2): > 50 µM
IC50 [2]: 0.0308 µM
bioavailability [3]: 55.8%
microsomal CLint [4]: 68 µL/min/mg
half-life [5]: 8.94 h
clearance [6]: 1.67 mL/min/kg
AUC(0-inf) [7]: 1660 ng·h/mL
microsomal CLint [8]: 34 µL/min/mg
C0 [9]: 1630 ng/mL
IC50 (CYP3A4/5): > 50 µM
clearance [10]: 5.37 mL/min/kg
Cmax [11]: 2190 ng/mL
Cmax [12]: 746 ng/mL
Compound: C[C@@H](N[C@H]1CCN(c2ccc(CC(=O)O)cc2)C1)c1cccc2ccccc12.Cl.Cl
